The term melting point denotes the temperature, or range, at which the solid turns liquid.

Here are results for 62 compounds from a melting point compilation (Tetko et al.; mined from patent text by program, amines drawn as free bases though some values may be those of a salt).

SMILES strings stand for the structures.

In turn, `CC(=O)OCC1OC(N=[N+]=[N-])C(OC(C)=O)C(OC(C)=O)C1OC(C)=O` (configuration not stated) returned a melting point of 52 to 53 °C. Under `O=c1c(O)c(-c2ccco2)oc2ccccc12` stands 173 to 174 °C; under `Cc1cccc(C)c1C(=O)N1C(=O)CN(c2ccccc2)C1=O`, 135 to 137 °C. In turn, `O=C1c2cccc([N+](=O)[O-])c2C(=O)N1CCCCN1C(=O)c2cccc([N+](=O)[O-])c2C1=O` returned a melting point of 245 °C.

Turning to `O=S(=O)(c1ccccc1)N1CCCC1c1ccc(Cl)cc1` (racemic), the melting point came to 122 °C. Under `CN(C)CC1CNc2cc(O)ccc2C1` (configuration not stated) stands 151 to 152 °C; under `Cc1cc(C2=NNC(=O)Cc3cc4c(cc32)OCO4)ccc1[N+](=O)[O-]`, 275 to 277 °C; under `CCOC(=O)/C=C/c1cn(Cc2ccc(OCc3nc(-c4ccccc4)oc3C)cc2)nc1OCc1ccc(OCc2nc(-c3ccccc3)oc2C)cc1`, 148 to 149 °C. For `O=C1NCCN1c1ccc(S(=O)(=O)Nc2ccc3c(c2)CCC3)cc1` the value was 228 to 230 °C. For `CC1CC(=O)NN=C1c1ccc(N2CCNCC2)c(F)c1` (configuration not stated) the value was 172 to 174 °C; for `COSN=C1C(=O)N(C)C(=O)N1c1ccccc1F`, 124 to 127 °C; for `C=CCn1c(C)c(C)c2cnnc(OCc3ccc(Cl)cc3Cl)c21`, 98 to 99 °C. As for `Nc1ncc(CN2CCN(c3ccccc3)CC2)c(N)n1`, the melting point fell in the range of 263 to 265 °C.

Regarding `O=C(O)c1ccccc1NCCC=C1c2ccccc2CCc2ccccc21`, the melting point lay in the range of 164 to 167 °C.

`CNC(=O)Nc1ccc(N2CCN(c3ccncc3)CC2)cc1` had a melting point of 258 to 260 °C. `COc1ccc(C2SCCCS2)cc1` gave a melting point of 117 to 119 °C.

`NC(=O)N1C(=O)Cc2ccccc21` gave a melting point of 179 to 180 °C.

As for `CCOC(=O)CC1CCc2cc3ccccc3n2C1` (configuration not stated), the melting point was 66 to 68 °C. As to `COc1ccc(Cn2ncc3nc(Cl)nc(Cl)c32)cc1`, the melting point is 100 to 101 °C. The compound `Cc1nn(-c2cncnc2)cc1N` had a melting point of 211 to 215 °C. For `CN(C)S(=O)(=O)c1cccc(S(N)(=O)=O)c1` the value was 101 to 106 °C; for `CN(C)C1(c2ccccc2Cl)C(=O)N(Cc2ccc([N+](=O)[O-])cc2)c2ccc(Cl)cc21` (configuration not stated), 189 to 193 °C. For `COC(=O)C1=C(C)NC(C)=C(C(=O)OC)C1c1cc([N+](=O)[O-])ccc1OCCNCC(O)c1ccccc1` (configuration not stated) the value was 135 to 137 °C; for `NCC(O)c1cc(Cl)cc(Cl)c1` (configuration not stated), 66 °C. As for `Fc1ccc2c(CN3CC=C(CCc4ccccc4)CC3)c[nH]c2c1`, the melting point lay in the range of 150 to 152 °C.

Compound `CN(c1ccccc1)c1nc(N2CCOCC2)nc(-n2ccnc2)n1` had a melting point of 119 to 120 °C. In turn, `COc1cc2c(cc1OC)-c1ncc(C#N)c(=O)n1CC2` came in with a melting point of 261 to 262 °C. For `COC1Oc2c(c(=O)oc3cc(O)ccc23)C1c1c(O)c2ccc(O)cc2oc1=O` (configuration not stated) the value was above 300 °C. Consider `CCOC(=O)c1cn(C(C)(C)C)c2nc(SCC)c(F)cc2c1=O`, for which the melting point was in the range of 159 to 160 °C.

Take `CC(c1ccccc1)c1cc(C(=O)O)c(O)c(C(C)c2ccccc2)c1` (configuration not stated): the melting point was 147 to 150 °C. For `CC(=O)c1cc(Br)cc(Cc2cc(Cl)cc(Cc3cc(Br)ccc3O)c2O)c1O` the value was 185 to 186 °C. Under `O=c1oc2ccc(-c3ccc(F)cc3F)cc2c(=O)n1-c1ccccc1C(F)(F)F` stands 200 to 201 °C.

Regarding `COc1ccc(CSC2=NC(c3cccc(Cl)c3Cl)C(C(=O)OC(C)C)=C(C)N2)cc1` (configuration not stated), the melting point was in the range of 98 to 100 °C.

As to `COc1cnc2c(-c3cccc(C(F)(F)F)c3)ccc(C)c2n1`, the melting point is 141 to 142 °C. Under `COc1cc(OC)c2c(=O)[nH]c(-c3ccc(OC)c(-c4ccc(C(=O)N(C)C)cc4C)n3)nc2c1` stands 248 to 251 °C; under `Cc1c(C(=O)Nc2ccc(N3CCC(=O)CC3)c(C#N)c2)cnn1-c1ccc(Cl)cc1`, 238 °C. In turn, `COc1cc2c(Nc3ccc4cn[nH]c4c3)c(C#N)cnc2cc1OCCN(C)C` registered a melting point of 218 to 219 °C. For `Cc1c(O)ccc2c(=O)c(-c3ccc4c(c3)OCO4)coc12` the value was 270 to 272 °C. Under `Fc1ccc(-c2cncc(CN3CCN(c4ncccn4)CC3)c2)cc1` stands 97 to 98 °C; under `CC(C(=O)O)c1ccc(-c2nc3ccccc3o2)cc1` (configuration not stated), 174 to 178 °C. For `CC(C)CC(NC(=O)c1ccc2c(N)cccc2n1)C(=O)NCC#N` (configuration not stated) the value was 190 to 194 °C; for `CC(C)c1cc(S(=O)(=O)c2c(Br)cc(CC(=O)O)cc2Br)ccc1O`, 171 to 172 °C.

`Fc1c2c(nc3cc(Cl)ccc13)CCCC2` yielded a melting point of 68 to 70 °C.

As to `COC(=O)c1cc(C(=O)OC)c(O)c([N+](=O)[O-])c1`, the melting point was in the range of 74 to 76 °C. `O=C(Nc1ccccc1)c1ccc(F)c(NC(=S)Nc2cc(Cl)cc(Cl)c2)c1` showed a melting point of 173 to 175 °C. Regarding `O=C(O)[C@@H]1CS[C@@H](CS)C1`, the melting point was in the range of 54.3 to 55.9 °C. For `OCC1OC(n2c(NC3CC3)nc3cc(Cl)c(Cl)cc32)C(O)C1O` (configuration not stated) the value was 184 to 186 °C; for `CCOC(=O)C1CC2CC(CP(=O)(O)O)CCC2CN1` (configuration not stated), 184 to 185 °C; for `CC(=O)n1cc(C2=C(c3cn(C)c4ccccc34)C(=O)NC2=O)c2ccccc21`, 252 to 253 °C. `Nc1ccc2c(c1)S(=O)(=O)c1ccccc1-2`: the melting point is 261 to 264 °C. Regarding `CC(C)(C)OC(=O)/C(=C/C1CCCCC1)C(=O)c1ccccc1O`, the melting point lay in the range of 62 to 65 °C.

In turn, `O=C(OCC1OC(n2cc(F)c(=O)[nH]c2=O)C(O)C1OC(=O)c1ccccc1)c1ccccc1` (configuration not stated) showed a melting point of 93 to 97 °C.

Consider `O=C(NC1CC1)c1cc2[nH]cnc2c(Cl)c1NC(=O)c1cc(C(F)(F)F)nn1-c1ncccc1Cl`, for which the melting point fell in the range of 198 to 201 °C.

The compound `O=C(OC1CCCCC1=O)c1ccc([N+](=O)[O-])cc1` (configuration not stated) displayed a melting point of 124 to 125 °C. The compound `CCCN1c2cscc2CN(C)c2ccccc21` registered a melting point of 90 to 92 °C.

On to `CSCc1cc([N+](=O)[O-])ccc1N`, for which the melting point is 72 to 77 °C. Under `O=C1CCC(N2C(=O)c3cccc(CNC(=O)c4ccc(F)c(C(F)(F)F)c4)c3C2=O)C(=O)N1` (configuration not stated) stands 171 to 173 °C; under `CC(C)(C)c1cc(CCc2ccccc2NC(=O)NC2CCN(Cc3cccc(F)c3)CC2)cc(C(C)(C)C)c1O`, 99 to 100 °C; under `O=C(Cc1ccc(O)cc1)Nc1c(-c2cc(Cl)ccc2O)c2cc(C(F)(F)F)ccc2[nH]c1=O`, 218 to 221 °C. Consider `CC(=O)OCC(=O)C12OCOC1CC1C3CCC4=CC(=O)C=CC4(C)C3(Cl)C(O)CC12C` (configuration not stated), for which the melting point lay in the range of 244 to 245 °C.

Regarding `O=C(NC1CCN(CC23CC(c4ccccc42)c2ccccc23)CC1)NC1CCCCO1` (configuration not stated), the melting point lay within 211 to 212 °C.

In turn, `CCOC(=O)c1ccc(Nc2nc(=O)c3cccnc3s2)cc1` returned a melting point of 230 to 233 °C.
